These results are taken from publication PMC7144120, “Psoralen Derivatives as Inhibitors of Mycobacterium tuberculosis Proteasome” (Molecules, 2020).

“Also recorded” adds a separate entry of the source. Where two headings read alike, the source gives them in different places. *1 amine or outer side, *2 acyl side, *3 side chain or, on linkers, in order; H or OH if unused. Where a SMILES comes first, the peptide text is derived from it. The star is where a group is joined. AMC = Cc1cc(=O)oc2cc(N*)ccc12; Suc = O=C(CCC(=O)[*:2])[*:1]

The target of series [1] is T1, Mtb proteasome (Mycobacterium tuberculosis, UniProt P9WHT9).
T1 construct: made in house
T1 sequence (P9WHT9 whole entry, looked up): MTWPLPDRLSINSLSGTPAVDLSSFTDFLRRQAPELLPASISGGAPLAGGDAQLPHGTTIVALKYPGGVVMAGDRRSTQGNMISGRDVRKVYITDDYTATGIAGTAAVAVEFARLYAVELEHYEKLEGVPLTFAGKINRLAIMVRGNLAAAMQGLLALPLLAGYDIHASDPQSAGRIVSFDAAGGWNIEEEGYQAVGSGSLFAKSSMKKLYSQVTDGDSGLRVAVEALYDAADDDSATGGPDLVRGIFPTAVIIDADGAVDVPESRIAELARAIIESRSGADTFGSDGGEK
Also on record: method as in PMID 16468985. The conditions noted are these: substrate of Mtb proteasome; read-out: Km (literature value); cited from earlier work.

Series [2] deals with Cc1cc(=O)oc2cc(NC(=O)[C@H](Cc3ccc(O)cc3)NC(=O)[C@@H](NC(=O)[C@H](CC(C)C)NC(=O)[C@H](CC(C)C)NC(=O)CCC(=O)O)C(C)C)ccc12. The series can be described thus: purified protein, by the assay type. To be noted: other: substrate of Mtb proteasome, 10 nM enzyme.
Method: Additionally, the Km of the substrate Suc-LLVY-AMC was calculated based on the initial velocity of the enzymatic reaction using 10 nM Mtb proteasome at various concentration of the substrate (12.5, 25, 50, 100, 250, 500 µM).
A further series deals with ß5i of IP. The conditions noted are these: read-out: IC50 against ß5i of IP; cited from earlier work.
In series [3] the target is T1, Mtb proteasome. The series can be described thus: biochemical. The conditions noted are these: for IC50: 50 µM Suc-LLVY-AMC, 30 min preincubation, 37 °C, triplicate, read-out: IC50 against the Mtb proteasome; for Hill Coefficient: from IC50 curve, Mtb proteasome. The class given is biochemical.
Series [4] addresses T1, Mtb proteasome. The series can be described thus: Determination of Ki and type of inhibition (varied substrate concentration, GraphPad Prism model fit). The conditions noted are these: for Ki: best scoring inhibition model; for Type of Inhibition: best ranking model (mixed, competitive, noncompetitive, uncompetitive). The class given is biochemical. As for the experimental part:
The concentrations of 11, 13 and 15 were 0, 0.56, 0.81, 1.15, 1.65, 2.35, 4.80, 9.80 and 20 µM. Further, the concentrations for compound 8 were 0, 1.65, 2.35, 4.80, 9.80 µM and for bortezomib 0, 0.28, 0.40, 0.58, 0.82, 1.18, 2.40, 4.90 and 10 µM. All experiments were performed in triplicate. The resulting data were analyzed using the GraphPad Prism 6 software and were fitted to the software provided models for competitive, noncompetitive, uncompetitive and mixed type enzyme inhibition. The mode of inhibition and Ki values were chosen from the best ranking model, as determined by the software. Representative graphs (Michaelis-Menten, Dixon and Lineweaver-Burk plots) depicting the data fit for the best ranking model of inhibition for all compounds are shown in the Supplementary data (Figures S2–S19).

The target in series [5] is T1, Mtb proteasome. The class given is biochemical. The conditions noted are these: for Reversibility of inhibition: Mtb proteasome, 100-fold dilution after preincubation; for Reversibility of inhibition at lower concentrations: concentrations ≤ IC50.
Series [6] has as its target T1, Mtb proteasome. The series can be described thus: Determination of kinact/Ki values for PR-957. The class given is biochemical. To be noted: 50 µM Suc-LLVY-AMC, 37 °C. The procedure:
The kinetic assays were conducted as previously described in Enzymatic assays. Briefly, 7.8 μL of the Mtb proteasome (final concentration of 7 nM) in 20 mM HEPES buffer, pH = 7.5 with 0.5 mM EDTA was added to 0.2 μL of the compound solution at 100x final concentration in DMSO. The concentrations of PR-957 used were 0, 1.15, 1.65, 2.35, 4.80, 9.80 and 20 µM. The enzymatic reaction was initiated by the addition of 2 μL Suc-LLVY-AMC (final concentration of 50 μM) and the reaction progress was determined on a BioTek Synergy HT microplate reader, by monitoring fluorescence at 460 nm (λex = 360 nm) for 90 min at 37 °C. Values of kobs were derived from the fit of the data to the equation P = (vi/kobs)x [1 − exp(−kobs·t)] in GraphPadPrism. The data obtained were afterwards plotted against inhibitor concentration, to obtain kinact/Ki by fitting to the equation […]. The representative plots are presented in Supplementary data (Figure S33–S36).

As a reminder, the Km is the substrate concentration at which the rate is half of its maximum. Broadly, the IC50 is the concentration that inhibits the measured activity by half. The term Ki denotes the dissociation constant of the complex between target and ligand, obtained from inhibition or displacement. By kinact/KI is commonly meant the second-order rate constant of inactivation.

Take `Cc1cc(=O)oc2cc(NC(=O)[C@H](Cc3ccc(O)cc3)NC(=O)[C@@H](NC(=O)[C@H](CC(C)C)NC(=O)[C@H](CC(C)C)NC(=O)CCC(=O)O)C(C)C)ccc12` [Suc-LLVY-AMC] (Suc-LLVY-{AMC}): on Mtb proteasome [1], the Michaelis-Menten constant (Km) is 56 ± 15 µM.
Take “Mtb proteasome (Mycobacterium tuberculosis H37Rv)”: the Km entry in series [2] is “^aKi determined with GraphPad Prism by fitting the data to several inhibition models (mixed, competitive, noncompetitive, uncompetitive). The best scoring model was further examined by creating Dixon, Lineweaver-Burk and Michaelis-Menten plots. Km for Suc-LLVY-AMC is 60 ± 15 µM (see Supplementary data for details). ND, not determined. ^b The data were calculated as residual activities (RAs) of β5i in the presence of 10 μM of each compound (standard errors for RAs were < 15%). µM”.
`CC(C)C[C@H](NC(=O)[C@H](Cc1ccccc1)NC(=O)c1cnccn1)B(O)O` [Bortezomib, reference compound]: the 50% inhibitory concentration (IC50) with ß5i of IP was 0.004 µM; on Mtb proteasome [3], 0.11 ± 0.03 µM. Moreover, the “Hill Coefficient” value on Mtb proteasome [3] worked out at 0.76. In addition, on Mtb proteasome [4], the “α (mixed inhibition model)” value stood at 0.85. Moreover, on Mtb proteasome [4] (Ki), the affinity corresponds to a Ki of 0.133 µM. The “Type of Inhibition” value at Mtb proteasome [4] was “Mixed inhibition”; on Mtb proteasome [4] (listed as bortezomib) it was “mixed type of inhibition”. Also, the proteasome activity retained entry on Mtb proteasome [5] (5 × IC50 concentration, 0-, 15-, 30- or 60-min preincubation at 25 °C) is listed as “approximately 55%”. Also, the Reversibility of inhibition result is listed as “(Slow) reversible inhibition” on Mtb proteasome [5] and ““slow/partially” reversible” at Mtb proteasome [5] (listed as bortezomib). The “loss of enzyme activity compared to the DMSO control” value on Mtb proteasome [5] (concentrations equal or higher than IC50, longer preincubation time) is at most 45%.
Take `Cc1c(CCC(=O)ON2C(=O)CCC2=O)c(=O)oc2cc3occ(-c4ccco4)c3cc12` [Compound 11]: the IC50 with ß5i of IP was 0.94 µM. In addition, on Mtb proteasome [3], the IC50 stood at 8.8 ± 1 µM and the “Hill Coefficient” value is 0.90. Further, on Mtb proteasome [4], the “α (mixed inhibition model)” value was found to be 6.67 and the “Type of Inhibition” value is reported as “mixed type of inhibition”. This molecule returned an inhibition constant (Ki) at Mtb proteasome [4] (Ki) of 4.2 µM. Moreover, on Mtb proteasome [5], the Reversibility of inhibition entry was “partially reversible inhibition; also recorded: (Partially) reversible inhibition” and the “Reversibility of inhibition at lower concentrations” value is “reversible inhibition”.
With `Cc1cc(-c2coc3cc4oc(=O)c(CC(=O)ON5C(=O)CCC5=O)c(C)c4cc23)c(C)s1` [Compound 13], the IC50 with ß5i of IP is 4.4 µM. Also, at Mtb proteasome [3], the IC50 was determined as 3.2 ± 0.3 µM and the “Hill Coefficient” value was found to be 0.90. The inhibition constant (Ki) at Mtb proteasome [4] (Ki) is 1.1 µM. Further, the “Type of Inhibition” value on Mtb proteasome [4] is on record as “mixed type of inhibition”. At Mtb proteasome [5], the Reversibility of inhibition result is “partially reversible inhibition; also recorded: (Partially) reversible inhibition” and the “Reversibility of inhibition at lower concentrations” value is given as “reversible inhibition”.
In the case of `COc1ccc(C[C@H](NC(=O)[C@H](C)NC(=O)CN2CCOCC2)C(=O)N[C@@H](Cc2ccccc2)C(=O)[C@@]2(C)CO2)cc1` [PR-957, reference compound], the kinact/KI at Mtb proteasome [6] was found to be 96 M⁻¹ s⁻¹. For the same molecule, the IC50 in the series with ß5i of IP was 0.015 µM. Moreover, at Mtb proteasome [3], the IC50 amounted to 2.2 ± 1 µM and the “Hill Coefficient” value is on record as 0.91. The “Type of Inhibition” value on Mtb proteasome [4] is recorded as “Noncompetitive inhibition”. At Mtb proteasome [4] (read-out: Ki), the Ki worked out at 5.2 µM. At Mtb proteasome [5], the Reversibility of inhibition result was “irreversibly inhibited; also recorded: Irreversible inhibition”. In addition, the “recovery of proteasome activity” value at Mtb proteasome [5] (concentration equal or higher than IC50) is listed as “no significant recovery of proteasome activity; also recorded: completely inhibited the enzyme”.
